Measured values as given in ChEMBL document CHEMBL3734667 (Bioorg Med Chem, 2015).

What was measured:
[1] = Cytotoxicity against BHK cells assessed as cell viability after 48 to 96 hrs by MTT assay; format: cell-based, Mesocricetus auratus; conditions: hamster
[2] = tested on: Mammalian orthoreovirus 1; test: Antiviral activity against Reo-1 virus infected in BHK-21 cells assessed as inhibition of virus-induced cytopathogenicity after 3 to 4 days by MTT assay; format: functional, cell-based; conditions: Mammalian orthoreovirus 1, BHK-21
[3] = Cytotoxicity against african green monkey Vero 76 cells assessed as cell viability after 48 to 96 hrs by crystal violet staining method; format: cell-based; conditions: chlorocebus sabaeus
[4] = tested on: Vesicular stomatitis virus; test: Antiviral activity against VSV; format: functional, organism-based
Yellow fever virus = test: Antiviral activity against YFV infected in BHK-21 cells assessed as inhibition of virus-induced cytopathogenicity after 3 to 4 days by MTT assay; format: functional, organism-based
Poliovirus 1 = test: Antiviral activity against Human poliovirus 1 Sabin infected in african green monkey Vero76 cells assessed as inhibition of virus-induced cytopathogenicity by plaque reduction assay; format: functional, organism-based; conditions: Enterovirus C, Vero 76
Human orthopneumovirus = test: Antiviral activity against human RSV infected in african green monkey Vero76 cells assessed as inhibition of virus-induced cytopathogenicity after 5 days by plaque reduction assay; format: functional, organism-based; conditions: human respiratory syncytial virus, Vero 76, 120 h
Coxsackievirus B5 = test: Antiviral activity against human CVB5 infected in african green monkey Vero76 cells assessed as inhibition of virus-induced cytopathogenicity after 3 days by plaque reduction assay; format: functional, organism-based; conditions: Enterovirus B, Vero 76, 72 h
[5] = tested on: Human immunodeficiency virus 1; test: Antiviral activity against HIV-1 infected in MT4 cells assessed as inhibition of virus-induced cytopathogenicity after 4 days by MTT assay; format: functional, organism-based; conditions: Human immunodeficiency virus 1, MT4, 96 h
[6] = Cytotoxicity against human MT4 cells assessed as cell viability after 96 hrs by MTT assay; format: cell-based
[7] = tested on: Bovine viral diarrhea virus 1; test: Antiviral activity against BVDV infected in MDBK cells assessed as inhibition of virus-induced cytopathogenicity after 3 to 4 days by MTT assay; format: functional, organism-based; conditions: Bovine viral diarrhea virus isolates and strains
[8] = Cytotoxicity against MDBK cells assessed as cell viability after 48 to 96 hrs by MTT assay; format: cell-based, Bos taurus; conditions: cattle
Vaccinia virus = test: Antiviral activity against Vaccinia virus; format: functional, organism-based; conditions: Orthopoxvirus vaccinia
Human alphaherpesvirus 1 = test: Antiviral activity against HSV1; format: functional, organism-based
[9] = Selectivity index, ratio of CC50 for african green monkey Vero76 cells to EC50 for human RSV; set-up: species or system human respiratory syncytial virus, Vero 76

| Structure (SMILES) | CC50 [1] | EC50 [2] | CC50 [3] | EC50 [4] | EC50 (Yellow fever virus) | EC50 (Poliovirus 1) | EC50 (Human orthopneumovirus) | EC50 (Coxsackievirus B5) | EC50 [5] | CC50 at 96 h [6] | EC50 [7] | CC50 [8] | EC50 (Vaccinia virus) | EC50 (Human alphaherpesvirus 1) | Ratio CC50/EC50 [9] |
| --- | --- | --- | --- | --- | --- | --- | --- | --- | --- | --- | --- | --- | --- | --- | --- |
| COc1ccc(Cn2nc3ccc(C(F)(F)F)cc3n2)cc1 | > 100 µM | > 100 µM | > 100 µM | > 100 µM | > 100 µM | > 100 µM | > 100 µM | > 100 µM | > 100 µM | > 100 µM | > 100 µM | > 100 µM | > 100 µM | > 100 µM | – |
| FC(F)(F)c1ccc2nn(Cc3ccccc3)nc2c1 | > 100 µM | > 100 µM | > 100 µM | > 100 µM | > 100 µM | > 100 µM | > 100 µM | > 100 µM | > 100 µM | > 100 µM | > 100 µM | > 100 µM | > 100 µM | > 100 µM | – |
| Clc1ccc(Cn2nc3cc(Cl)c(Cl)cc3n2)cc1 | > 100 µM | > 100 µM | > 100 µM | > 100 µM | > 100 µM | > 100 µM | > 100 µM | > 100 µM | > 100 µM | > 100 µM | > 100 µM | > 100 µM | > 100 µM | > 100 µM | – |
| CC(C)(Oc1ccc(-n2nc3ccc(Cl)cc3n2)cc1)C(=O)O | 75 µM | – | 70 µM | > 100 µM | > 100 µM | > 100 µM | 25 µM | > 100 µM | > 100 µM | > 100 µM | > 100 µM | ≥ 100 µM | > 100 µM | – | 2.8 |
| Clc1cc2nn(Cc3ccccc3)nc2cc1Cl | > 100 µM | > 100 µM | > 100 µM | > 100 µM | > 100 µM | > 100 µM | > 100 µM | > 100 µM | > 100 µM | > 100 µM | > 100 µM | > 100 µM | > 100 µM | > 100 µM | – |
| Cc1cc2nn(C3CCCO3)nc2cc1C (stereo not drawn) | > 100 µM | > 100 µM | > 100 µM | > 100 µM | > 100 µM | > 100 µM | – | – | > 100 µM | > 100 µM | > 100 µM | > 100 µM | – | > 100 µM | – |
| COc1ccc(Cn2nc3cc(Cl)c(Cl)cc3n2)cc1 | > 100 µM | > 100 µM | > 100 µM | > 100 µM | > 100 µM | > 100 µM | > 100 µM | > 100 µM | > 100 µM | > 100 µM | > 100 µM | > 100 µM | > 100 µM | > 100 µM | – |
| Clc1cc2nn(C3CCCCO3)nc2cc1Cl (stereo not drawn) | > 100 µM | > 100 µM | ≥ 100 µM | > 100 µM | > 100 µM | 60 µM | – | – | > 100 µM | > 100 µM | > 100 µM | > 100 µM | – | > 100 µM | – |
| COc1ccc(Cn2nnc3cc(Cl)c(Cl)cc32)cc1 | > 100 µM | > 100 µM | > 100 µM | > 100 µM | > 100 µM | > 100 µM | > 100 µM | > 100 µM | > 100 µM | > 100 µM | > 100 µM | > 100 µM | > 100 µM | > 100 µM | – |
| FC(F)(F)c1ccc2nn(Cc3ccc(Cl)cc3)nc2c1 | > 100 µM | > 100 µM | > 100 µM | > 100 µM | > 100 µM | > 100 µM | > 100 µM | > 100 µM | > 100 µM | > 100 µM | > 100 µM | > 100 µM | > 100 µM | > 100 µM | – |
